According to patent publication US20220396794A1, “APTAMERS AGAINST TRANSFERRIN RECEPTOR (TfR)” (APTERNA LIMITED, priority 2019, published 2022):

How the values were obtained:
[1] = test system: PANC-Luc tumors; experiment: Liver-metastatic pancreatic cancer mouse model, combinational treatment with gemcitabine; assay type: in vivo, NOD/SCID mice; conditions: gemcitabine alone 50 mg/kg 2 times/week I.V., compared to vehicle-treated control
Experimental: Intrahepatic pancreatic cancer liver-metastatic mouse model. To create an animal model harboring traceable tumors, a firefly luciferase fragment was inserted into the pLKO.1-AS3 backbone encoding the neo gene (National RNAi Core, Academia Sinica, Taiwan). One day before transduction, 293T cells were plated onto a 6-well plate. On the day of transduction, the medium was replaced with DMEM containing serial dilutions of the transfer plasmids and incubated for 5 h, then the medium was replaced. After two days, the culture medium containing recombinant lentiviral particles was obtained. PANC-1 cells were incubated with recombinant lentiviral particles for 24 h. […] Luciferase expression was assessed using the Luciferase Assay System. […] For the combinational treatment with gemcitabine, tumors were allowed to grow for 2 weeks after inoculation until they could be detected using an IVIS system, then mice were randomly divided into five groups of 10 animals/group. […] Tumor growth was monitored by evaluating bioluminescence using an IVIS 200 in vivo imaging platform (Caliper Life Sciences, Alameda, Calif.) and measuring the difference from before the first injection and one day after the last injection. […] The mice were imaged using the IVIS 200 and bioluminescent signals were analyzed using Living Image Software (Caliper Life Sciences, Alameda, Calif.). […]

[2] = target: T1, hTfR1 (extracellular domain of hTfR, His6-tagged) (Homo sapiens, UniProt P02786); experiment: Surface plasmon resonance-based biosensor assay (Biacore T100), aptamer-hTfR binding affinity and kinetics; conditions: for ka (1/Ms), measured association rate / kd (1/s), measured disassociation rate / Kd: Biacore T100, biotinylated aptamer on streptavidin chip, hTfR1 protein injected, 1:1 binding with mass transfer; for Kd: read-out: K^D (M), equilibrium dissociation constant; for binding affinity and kinetics for hTfR1 (Biacore sensorgram), in words: compared with parent TR14
T1 construct: (NP_003225.2) (Cys 89-Phe 760); His6 (N); purchased Sino Biological Inc 11020-H07H; host or cells: HEK293
T1 sequence (P02786 89-760): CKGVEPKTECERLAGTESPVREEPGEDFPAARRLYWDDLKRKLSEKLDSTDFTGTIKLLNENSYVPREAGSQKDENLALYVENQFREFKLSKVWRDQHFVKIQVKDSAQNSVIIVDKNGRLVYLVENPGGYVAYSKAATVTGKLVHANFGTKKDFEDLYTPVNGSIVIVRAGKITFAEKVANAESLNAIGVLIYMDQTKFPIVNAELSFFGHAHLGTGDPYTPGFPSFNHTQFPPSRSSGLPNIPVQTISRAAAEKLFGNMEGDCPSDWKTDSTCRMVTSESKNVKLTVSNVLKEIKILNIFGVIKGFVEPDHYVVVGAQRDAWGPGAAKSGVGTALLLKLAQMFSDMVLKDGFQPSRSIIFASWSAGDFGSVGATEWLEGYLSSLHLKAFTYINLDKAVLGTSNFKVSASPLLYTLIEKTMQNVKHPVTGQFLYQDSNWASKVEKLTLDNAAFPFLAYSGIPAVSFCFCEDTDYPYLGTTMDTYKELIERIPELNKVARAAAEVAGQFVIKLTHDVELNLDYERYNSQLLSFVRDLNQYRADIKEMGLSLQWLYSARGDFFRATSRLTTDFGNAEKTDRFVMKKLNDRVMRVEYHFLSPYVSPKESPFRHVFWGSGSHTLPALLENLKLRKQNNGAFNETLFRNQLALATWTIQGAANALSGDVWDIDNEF
From the text: Recombinant target protein. hTfR was purchased from Sino Biological Inc (11020-H07H, Beijing, P.R. China). The extracellular domain of hTfR (NP_003225.2) (Cys 89-Phe 760) was expressed with a His6-tag at the N-terminus in human cells (HEK293).
Surface plasmon resonance-based biosensor assay. The Biacore T100 (GE Healthcare, Uppsala, Sweden) was used to monitor label-free interactions of truncated TR14-hTfR1 in real time. The biotinylated aptamer was coupled to a streptavidin-coated Biacore chip (SensorChip SA, BR-1003-98, General Electric Company) by an injection in binding buffer at a concentration of 25 μg/mL (30 mM Tris-HCl, pH 7.5; 150 mM NaCl; 5 mM MgCl2) at 10 uL/min. The RNA was refolded by heating to 65° C., followed by cooling to 37° C., before immobilization. To measure binding kinetics, five concentrations of purified hTfR1 protein were injected at a flow rate of 10 uL/min. After binding, the surface was regenerated by injecting 50 mM NaOH at a flow rate of 15 μL/min for 20 s. Data from the control surface were subtracted. BIAevaluation software (GE Healthcare) was used for analysis. The binding data was fit to a 1:1 binding with a mass transfer model to calculate kinetics parameters as previously described (Hernandez et al, 2009; Soontornworajit et al, 2011)

[3] = target: T2, TfR1 (Homo sapiens, UniProt P02786); experiment: Cross-reactivity by live cell confocal imaging, U87MG cells (express TfR1, not TfR2); assay type: cell-based; conditions: Cy3-labelled aptamer, U87MG cells (TfR1 only)
T2 construct: The U87MG cells only express TfR1, not TfR2; endogenous in cells; host or cells: U87MG (U-87 MG, ATCC HTB-14)
T2 sequence (P02786 whole entry): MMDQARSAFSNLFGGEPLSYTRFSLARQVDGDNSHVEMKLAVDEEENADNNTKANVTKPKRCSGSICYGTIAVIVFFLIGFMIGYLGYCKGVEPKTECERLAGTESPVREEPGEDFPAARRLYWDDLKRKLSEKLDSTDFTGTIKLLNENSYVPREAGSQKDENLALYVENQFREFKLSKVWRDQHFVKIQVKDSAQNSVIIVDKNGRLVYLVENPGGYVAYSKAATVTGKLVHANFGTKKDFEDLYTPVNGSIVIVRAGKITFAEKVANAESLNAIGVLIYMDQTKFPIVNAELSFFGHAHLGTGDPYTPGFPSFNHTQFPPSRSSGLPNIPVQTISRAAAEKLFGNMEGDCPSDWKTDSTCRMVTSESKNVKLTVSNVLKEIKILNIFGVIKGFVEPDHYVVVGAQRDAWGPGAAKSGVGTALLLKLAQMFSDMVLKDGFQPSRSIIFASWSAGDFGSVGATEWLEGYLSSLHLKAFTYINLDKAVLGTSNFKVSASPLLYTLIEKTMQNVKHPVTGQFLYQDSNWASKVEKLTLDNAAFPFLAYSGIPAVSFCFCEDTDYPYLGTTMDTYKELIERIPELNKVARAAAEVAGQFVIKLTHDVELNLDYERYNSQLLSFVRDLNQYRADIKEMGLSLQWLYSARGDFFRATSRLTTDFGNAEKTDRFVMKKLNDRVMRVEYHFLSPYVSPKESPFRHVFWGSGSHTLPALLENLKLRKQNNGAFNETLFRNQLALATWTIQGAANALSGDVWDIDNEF
Experimental: (§1) Cell line. HepG2 (Hepatocarcinoma, HB-8065) and PANC-1 (Pancreatic epithelioid carcinoma, CRL-1469), U-87 MG (Glioblastoma, HTB-14) were purchased from the American Type Culture Collection (ATCC, Manassas, Va.). The cells were cultured according to the suppliers' instructions. TB10 human glioma cell line was obtained from Vittorio de Franciscis lab in Italy. The cells were cultured according to the suppliers' instructions.
(§2) To determine the potential cross-reactivity of the parent TR14, S2 (43-nt) and ST1-3 (22-nt) truncates, we tested chemically synthesized parent TR14, TR14-[…] or TR14-ST1-3 aptamer labelled with Cy3 on live cells imaging by confocal microscopy. To test this, we choose two glioblastoma cell lines (U87MG and TB10) that are selectively expressed of TfR1 or TfR2. The U87MG cells only express TfR1, not TfR2. In contrast, TB10 expresses TfR2, not TfR1.

[4] = target: T3, TfR2 (Homo sapiens, UniProt Q9UP52); experiment: Cross-reactivity by live cell confocal imaging, TB10 cells (express TfR2, not TfR1); assay type: cell-based; conditions: Cy3-labelled aptamer, TB10 cells (TfR2 only)
T3 construct: In contrast, TB10 expresses TfR2, not TfR1; endogenous in cells; host or cells: TB10 human glioma cells
T3 sequence (Q9UP52 1-801): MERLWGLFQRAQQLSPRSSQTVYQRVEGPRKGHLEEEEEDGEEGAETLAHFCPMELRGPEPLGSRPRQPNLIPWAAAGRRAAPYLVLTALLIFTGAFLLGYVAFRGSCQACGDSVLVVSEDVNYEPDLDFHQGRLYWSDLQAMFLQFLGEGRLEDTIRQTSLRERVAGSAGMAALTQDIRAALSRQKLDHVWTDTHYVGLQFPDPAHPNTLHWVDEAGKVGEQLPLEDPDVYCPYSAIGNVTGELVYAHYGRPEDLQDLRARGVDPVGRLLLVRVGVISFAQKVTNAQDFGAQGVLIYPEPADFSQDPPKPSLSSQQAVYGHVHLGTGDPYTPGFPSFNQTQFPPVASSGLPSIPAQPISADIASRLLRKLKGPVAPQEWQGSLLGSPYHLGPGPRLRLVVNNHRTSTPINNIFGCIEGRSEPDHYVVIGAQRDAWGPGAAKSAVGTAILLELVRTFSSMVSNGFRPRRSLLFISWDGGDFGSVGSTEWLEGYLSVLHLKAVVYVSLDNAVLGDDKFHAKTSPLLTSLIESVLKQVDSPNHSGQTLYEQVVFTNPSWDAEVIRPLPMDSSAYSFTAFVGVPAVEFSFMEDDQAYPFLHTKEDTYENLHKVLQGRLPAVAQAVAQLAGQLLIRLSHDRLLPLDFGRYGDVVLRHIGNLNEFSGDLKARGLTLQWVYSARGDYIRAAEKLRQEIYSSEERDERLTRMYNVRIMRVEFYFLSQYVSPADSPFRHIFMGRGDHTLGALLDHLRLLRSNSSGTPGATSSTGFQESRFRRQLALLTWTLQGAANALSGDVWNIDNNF
Experimental: as §1, §2

Compound	reduction of tumor volume [1]	ka (1/Ms), measured association rate [2]	kd (1/s), measured disassociation rate [2]	Kd [2]	binding affinity and kinetics for hTfR1 (Biacore sensorgram), in words [2]	binding to TfR1 [3]	binding to TfR2 [4]
Nc1ccn([C@@H]2O[C@H](CO)[C@@H](O)C2(F)F)c(=O)n1 [gemcitabine, 2′, 2′-difluoro 2′deoxycytidine, reference compound]	~70%	–	–	–	–	–	–
TR14 S1: TR14 truncate, 46-nt, with 5′-GGG; SEQ ID NO:2 (GGGGCUCAAUGCGUUCACGUUUAUUCACAUUUUUGAAUUGAGCAUG; listed as RNA, chemistry not given here)	–	13000 M⁻¹ s⁻¹	1.89e-05 s⁻¹	1.46e-09 M	–	–	–
TR14 S2: TR14 truncate, 43-nt, with 5′-GGG; SEQ ID NO:3 (GGGGCUCAAUGCGUUCACGUUUAUUCACAUUUUUGAAUUGAGC; listed as RNA, chemistry not given here)	–	8.34e+08 M⁻¹ s⁻¹	0.000577 s⁻¹	–	improved kinetic constants	selective binding to TfR1	selective binding to TfR1
TR14 ST1-1: TR14 truncate, 40-nt, without 5′-GGG, chemically synthesized; SEQ ID NO:4 (GCUCAAUGCGUUCACGUUUAUUCACAUUUUUGAAUUGAGC; chemically synthesized, modifications not given here, further chemistry not given here)	–	–	–	–	neither TR14 ST1-1 nor TR14 ST1-2 were measurable	–	–
TR14 ST1-2: TR14 truncate, 32-nt, 5′-AAUGCGUUCACGUUUAUUCACAUUUUUGAAUU-3′; SEQ ID NO:5 (listed as RNA, chemistry not given here)	–	–	–	–	neither TR14 ST1-1 nor TR14 ST1-2 were measurable	–	–
TR14 ST1-3: TR14 truncate, 22-nt, 5′-UUUAUUCACAUUUUUGAAUUGA-3′; SEQ ID NO:6 (listed as RNA, chemistry not given here)	–	6.3e+06 M⁻¹ s⁻¹	0.000138 s⁻¹	2.2e-11 M	–	cross-activity on both TfR1 and TfR2	cross-activity on both TfR1 and TfR2
